From US8383581B2, “Short-chain peptides as parathyroid hormone (PTH) receptor agonist” (Cadila Healthcare Limited, priority 2009, dated 2013)
Where a SMILES comes first, the peptide text is derived from it. [ ]: non-standard residue; d: D form. ξ: configuration not given here. ξαMePhe(2,6-F2) = CC(N)(Cc1c(F)cccc1F)C(=O)O; ξαMe(hhPhe) = CC(N)(CCCc1ccccc1)C(=O)O; ξαMePhe(2-F) = CC(N)(Cc1ccccc1F)C(=O)O; ξαMeW = CC(N)(Cc1c[nH]c2ccccc12)C(=O)O; hArg = N=C(N)NCCCC[C@H](N)C(=O)O; Cit = NC(=O)NCCC[C@H](N)C(=O)O; ξαMeF = CC(N)(Cc1ccccc1)C(=O)O; ξαMeNle = CCCCC(C)(N)C(=O)O; Nle = CCCC[C@H](N)C(=O)O; Orn = NCCC[C@H](N)C(=O)O; ξαMeP = CC1(C(=O)O)CCCN1; Ac5c = NC1(C(=O)O)CCCC1; Ac3c = NC1(C(=O)O)CC1; Aib = CC(C)(N)C(=O)O

Experiments:
[1] = tested on: ovariectomised (OVX) rats; test: In vivo anti-osteoporosis activity testing in OVX rat model (serum calcium, phosphate, bone parameters); design: species or system Female Wistar Rats; settings: po
Description: c) In Vivo Anti-Osteoporosis Activity Testing in OVX Rat Model: The ovariectomised (OVX) rats were used to study anti-osteoporosis activity of test compounds (short-chain peptides) in vivo. The OVX rats develop osteopenia due to ovarian hormone deficiency. Osteopenia can be detected as early as 14 days post OVX, increase for the next 100 days and then stabilised (Wronski T. J., et al., Calcif. Tissue Int., 43(3), 1988, 179-183). Detailed Study Protocol to Evaluate the Effects of Anabolic Therapy on Bone Markers and Histomorphometry in OVX Animals: 10 to 11 weeks old Female Wistar Rats (150-200 g) were used. The animals were kept in individually ventilated cages in a room with controlled temperature (23°±3° C.), lighting (12:12 h light-dark cycle) and relative humidity (55±10%). Animals had free access to standard rat chow and water. Protocol for use of animals for conducting this study has been reviewed and approved by Institutional Animal Ethics Committee (IAEC). The animals were marked with picric acid for identification and acclimatized to experimental room conditions for 2 days prior to initiation of the study. For the induction of osteoporosis, rats were bilaterally ovariectomised under anesthesia. For Ovariectomy, Incision was made on dorsa-lateral side near lumbar region of animal. After that, ovary was excised and the veins were tied with ligature before removing ovary to prevent blood loss. Then incision was sutured back with ligature. After Bilateral ovariectomy, animals were allowed to rest for 4 weeks. They were then divided into different groups (n=9) based on their body weight. The groups consisted of a no treatment control, PTH as standard and one or two groups of test compounds (short-chain peptides). The treatment was given for the duration of 6 weeks. At the last day of treatment animals were kept overnight in metabolic cages under fasting for the collection of Urine. Next day, blood was collected after 24 hours of last dosing and animals were sacrificed. Changes in biochemical parameters and bone turnover parameters (Increase in serum Calcium and decrease in Phosphate levels, Acid Phosphatase and TRAP) were evaluated in the urine and serum. After sacrificing, intact femur and tibial bones are removed and cleaned from adherent tissues, muscles and tendons; weighed and collected in formal saline (10% formaldehyde solution). Lumbar vertebra (L5) was excised, carefully cleaned and collected in formal saline. Femur, tibia and Lumbar vertebra-5 (L5) were later processed for histomorphometric evaluation (Zhang L., et al., Tohoku J Exp Med., 1998, 186(2), 131-41; Tanizawa T., et al., Toxicol Lett., 1998, 102, 399-403).

[2] = Stability of peptides in human liver microsomes; format: in vitro ADME; settings: human, microsomes
Summary of the method: (§1)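 Peptides at 2 μM final incubated 0–24 h at 37 °C (50 mM triethanolamine-HCl, pH 7.8) in each matrix, matrix level set to degrade ~50% PTH(1-34) in 1 h; TFA-quenched, C18 HPLC at 206 nm with ESI-MS peak identification; percent degradation from peak areas at each time point.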

[3] = Stability of peptides in simulated intestinal fluid (pH 7.5); format: in vitro ADME; settings: pH 7.5
Summary of the method: as §1

[4] = Stability of peptides in simulated gastric fluid (pH 1.5; HCl, NaCl and Pepsin); format: in vitro ADME; settings: pH 1.5
[5] = Stability of peptides in human plasma; format: in vitro ADME; settings: human, plasma
Summary of the method: as §1

CC[C@H](C)[C@H](NC(=O)[C@H](CCC(=O)O)NC(=O)C(C)(C)NC(=O)[C@@H](NC(=O)C(C)(C)N)C(C)C)C(=O)N[C@@H](CCC(N)=O)C(=O)N[C@@H](CC(C)C)C(=O)N[C@@H](CCSC)C(=O)N[C@@H](Cc1c[nH]cn1)C(=O)N[C@@H](CCC(N)=O)C(=O)N[C@@H](CCCCNC(=N)N)C(=O)N1CCCC1(C)C(=O)N[C@@H](CCCCN)C(=O)NC(C)(Cc1ccccc1)C(N)=O (stereo partly shown) [Seq. ID. 7] (H-[Aib]V[Aib]EIQLMHQ[hArg][ξαMeP]K[ξαMeF]-NH2)
% decrease in serum PO4 Levels (mg/dl) vs control ([1]; 1 mg/kg): 88% | % increase in serum Ca^2+ Levels (mg/dl) vs control ([1]; 1 mg/kg): 90%

CC[C@H](C)[C@H](NC(=O)[C@H](CCC(=O)O)NC(=O)C(C)(C)NC(=O)[C@@H](NC(=O)C1(N)CC1)C(C)C)C(=O)N[C@@H](CCC(N)=O)C(=O)N[C@@H](CC(C)C)C(=O)N[C@@H](CCSC)C(=O)N[C@@H](Cc1c[nH]cn1)C(=O)N[C@@H](CCC(N)=O)C(=O)N[C@@H](CCCCNC(=N)N)C(=O)N1CCCC1(C)C(=O)N[C@@H](CCCCN)C(=O)NC(C)(Cc1ccccc1)C(N)=O (stereo partly shown) [Seq. ID. 12] (H-[Ac3c]V[Aib]EIQLMHQ[hArg][ξαMeP]K[ξαMeF]-NH2)
% decrease in serum PO4 Levels (mg/dl) vs control ([1]; 5 mg/kg): 102% | % increase in serum Ca^2+ Levels (mg/dl) vs control ([1]; 5 mg/kg): 118%

CCCC[C@H](NC(=O)C(C)(Cc1c(F)cccc1F)NC(=O)[C@H](CCC(N)=O)NC(=O)[C@@H](NC(=O)[C@H](CCC(=O)O)NC(=O)C(C)(C)NC(=O)[C@@H](NC(=O)C1(N)CC1)C(C)C)[C@@H](C)CC)C(=O)N[C@@H](Cc1c[nH]cn1)C(=O)N[C@@H](CCC(N)=O)C(=O)N[C@@H](CCCCNC(=N)N)C(=O)N[C@@H](C)C(=O)N[C@@H](CCCCN)C(=O)NC(C)(Cc1ccccc1)C(N)=O (stereo partly shown) [Seq. ID. 39] (H-[Ac3c]V[Aib]EIQ[ξαMePhe(2,6-F2)][Nle]HQ[hArg]AK[ξαMeF]-NH2)
% decrease in serum PO4 Levels (mg/dl) vs control ([1]; 0.03 mg/kg): 66% | % increase in serum Ca^2+ Levels (mg/dl) vs control ([1]; 0.03 mg/kg): 88%

CCCC[C@H](NC(=O)C(C)(Cc1c(F)cccc1F)NC(=O)[C@H](CCC(N)=O)NC(=O)[C@@H](NC(=O)[C@H](CCC(=O)O)NC(=O)C(C)(C)NC(=O)[C@@H](NC(=O)C(C)(C)N)C(C)C)[C@@H](C)CC)C(=O)N[C@@H](Cc1c[nH]cn1)C(=O)N[C@@H](CCC(N)=O)C(=O)N[C@@H](CCCCNC(=N)N)C(=O)N1CCCC1(C)C(=O)N[C@@H](CCCCN)C(=O)NC(C)(Cc1ccccc1F)C(N)=O (stereo partly shown) [Seq. ID. 72] (H-[Aib]V[Aib]EIQ[ξαMePhe(2,6-F2)][Nle]HQ[hArg][ξαMeP]K[ξαMePhe(2-F)]-NH2)
% decrease in serum PO4 Levels (mg/dl) vs control ([1]; 0.01 mg/kg): 77% | % increase in serum Ca^2+ Levels (mg/dl) vs control ([1]; 0.01 mg/kg): 49%

CCCC[C@H](NC(=O)C(C)(Cc1ccccc1F)NC(=O)[C@H](CCC(N)=O)NC(=O)[C@@H](NC(=O)[C@H](CCC(=O)O)NC(=O)C1(NC(=O)[C@@H](NC(=O)C2(N)CCCC2)C(C)C)CCCC1)[C@@H](C)CC)C(=O)N[C@@H](Cc1c[nH]cn1)C(=O)N[C@@H](CCC(N)=O)C(=O)N[C@@H](CCCCNC(=N)N)C(=O)N[C@@H](C)C(=O)N[C@@H](CCCCN)C(=O)NC(C)(Cc1c(F)cccc1F)C(N)=O (stereo partly shown) [Seq. ID. 99] (H-[Ac5c]V[Ac5c]EIQ[ξαMePhe(2-F)][Nle]HQ[hArg]AK[ξαMePhe(2,6-F2)]-NH2)
% decrease in serum PO4 Levels (mg/dl) vs control ([1]; 2 mg/kg): 89% | % increase in serum Ca^2+ Levels (mg/dl) vs control ([1]; 2 mg/kg): 99%

CCCC[C@H](NC(=O)C(C)(Cc1c(F)cccc1F)NC(=O)[C@H](CCC(N)=O)NC(=O)[C@@H](NC(=O)[C@H](CCC(=O)O)NC(=O)C1(NC(=O)[C@@H](NC(=O)C2(N)CCCC2)C(C)C)CCCC1)[C@@H](C)CC)C(=O)N[C@@H](Cc1c[nH]cn1)C(=O)N[C@@H](CCC(N)=O)C(=O)N[C@@H](CCCCNC(=N)N)C(=O)NC(C)(C)C(=O)N[C@@H](CCCCN)C(=O)NC(C)(Cc1c(F)cccc1F)C(N)=O (stereo partly shown) [Seq. ID. 117] (H-[Ac5c]V[Ac5c]EIQ[ξαMePhe(2,6-F2)][Nle]HQ[hArg][Aib]K[ξαMePhe(2,6-F2)]-NH2)
% decrease in serum PO4 Levels (mg/dl) vs control ([1]; 3 mg/kg): 99% | % increase in serum Ca^2+ Levels (mg/dl) vs control ([1]; 3 mg/kg): 110%

CCCC[C@H](NC(=O)C(C)(Cc1c(F)cccc1F)NC(=O)[C@H](CCC(N)=O)NC(=O)[C@@H](NC(=O)[C@H](CCC(=O)O)NC(=O)C1(NC(=O)[C@@H](NC(=O)C2(N)CCCC2)C(C)C)CCCC1)[C@@H](C)CC)C(=O)N[C@@H](Cc1c[nH]cn1)C(=O)N[C@@H](CCC(N)=O)C(=O)N[C@@H](CCCCNC(=N)N)C(=O)NC(C)(C)C(=O)N[C@@H](CCCNC(N)=O)C(=O)NC(C)(Cc1c(F)cccc1F)C(N)=O (stereo partly shown) [Seq. ID. 158] (H-[Ac5c]V[Ac5c]EIQ[ξαMePhe(2,6-F2)][Nle]HQ[hArg][Aib][Cit][ξαMePhe(2,6-F2)]-NH2)
% decrease in serum PO4 Levels (mg/dl) vs control ([1]; 0.1 mg/kg): 82% | % increase in serum Ca^2+ Levels (mg/dl) vs control ([1]; 0.1 mg/kg): 100%

CCCC[C@H](NC(=O)C(C)(Cc1ccccc1F)NC(=O)[C@H](CCC(N)=O)NC(=O)[C@@H](NC(=O)[C@H](CCC(=O)O)NC(=O)C(C)(C)NC(=O)[C@@H](NC(=O)C1(N)CCCC1)C(C)C)[C@@H](C)CC)C(=O)N[C@@H](Cc1c[nH]cn1)C(=O)N[C@@H](CCC(N)=O)C(=O)N[C@@H](CCCCNC(=N)N)C(=O)NC(C)(C)C(=O)NC(C)(Cc1c(F)cccc1F)C(=O)NC(C)(Cc1ccccc1F)C(N)=O (stereo partly shown) [Seq. ID. 210] (H-[Ac5c]V[Aib]EIQ[ξαMePhe(2-F)][Nle]HQ[hArg][Aib][ξαMePhe(2,6-F2)][ξαMePhe(2-F)]-NH2)
% decrease in serum PO4 Levels (mg/dl) vs control ([1]; 1 mg/kg): 99% | % increase in serum Ca^2+ Levels (mg/dl) vs control ([1]; 1 mg/kg): 96%

CCCC[C@H](NC(=O)C(C)(Cc1c(F)cccc1F)NC(=O)[C@H](CCC(N)=O)NC(=O)[C@@H](NC(=O)[C@H](CCC(=O)O)NC(=O)C(C)(C)NC(=O)[C@@H](NC(=O)C(C)(C)N)C(C)C)[C@@H](C)CC)C(=O)N[C@@H](Cc1c[nH]cn1)C(=O)N[C@@H](CCC(N)=O)C(=O)N[C@@H](CCCN)C(=O)N[C@@H](C)C(=O)N[C@@H](CCCNC(N)=O)C(=O)NC(C)(Cc1c(F)cccc1F)C(N)=O (stereo partly shown) [Seq. ID. 293] (H-[Aib]V[Aib]EIQ[ξαMePhe(2,6-F2)][Nle]HQ[Orn]A[Cit][ξαMePhe(2,6-F2)]-NH2)
% decrease in serum PO4 Levels (mg/dl) vs control ([1]; 5 mg/kg): 75% | % increase in serum Ca^2+ Levels (mg/dl) vs control ([1]; 5 mg/kg): 67%

CCCC[C@H](NC(=O)C(C)(Cc1c(F)cccc1F)NC(=O)[C@H](CCC(N)=O)NC(=O)[C@@H](NC(=O)[C@H](CCC(=O)O)NC(=O)C(C)(C)NC(=O)[C@@H](NC(=O)C(C)(C)N)C(C)C)[C@@H](C)CC)C(=O)N[C@@H](Cc1c[nH]cn1)C(=O)N[C@@H](CCC(N)=O)C(=O)N[C@@H](CCCN)C(=O)N[C@@H](C)C(=O)NC(C)(Cc1c(F)cccc1F)C(=O)NC(C)(Cc1ccccc1F)C(N)=O (stereo partly shown) [Seq. ID. 317] (H-[Aib]V[Aib]EIQ[ξαMePhe(2,6-F2)][Nle]HQ[Orn]A[ξαMePhe(2,6-F2)][ξαMePhe(2-F)]-NH2)
% decrease in serum PO4 Levels (mg/dl) vs control ([1]; 3 mg/kg): 93% | % increase in serum Ca^2+ Levels (mg/dl) vs control ([1]; 3 mg/kg): 102%

CCCCC(C)(NC(=O)[C@H](CC(C)C)NC(=O)[C@H](CCC(N)=O)NC(=O)[C@@H](NC(=O)[C@H](CCC(=O)O)NC(=O)C(C)(C)NC(=O)[C@@H](NC(=O)C(C)(C)N)C(C)C)[C@@H](C)CC)C(=O)N[C@@H](Cc1c[nH]cn1)C(=O)N[C@@H](CCC(N)=O)C(=O)N[C@@H](CCCCNC(=N)N)C(=O)N[C@@H](C)C(=O)N[C@@H](CCCCNC(=N)N)C(=O)NC(C)(Cc1c[nH]c2ccccc12)C(=O)NC(C)(CCCc1ccccc1)C(N)=O (stereo partly shown) [Seq. ID. 949] (H-[Aib]V[Aib]EIQL[ξαMeNle]HQ[hArg]A[hArg][ξαMeW][ξαMe(hhPhe)]-NH2)
half-life [2]: 30 min | % degradation of peptides in 24 h when incubated with liver microsomes ([2]; 24 h, 2 μM, pH 7.8): 100% | half-life ([3]; simulated gi fluid): 30 min | % degradation of peptides in 24 h when incubated with simulated intestinal fluid ([3]; simulated intestinal fluid, 24 h, 2 μM): 100% | % degradation of peptides in 24 h when incubated with simulated gastric fluid ([4]; simulated gastric fluid, 24 h, 2 μM): 100% | half-life ([4]; simulated gi fluid): 30 min | half-life (t1/2) in human plasma [5]: (9) h | metabolised at 24 h, 2 μM ([5]; pH 7.8): 70%
